Data taken from patent US10729701B2, “Compounds that are analogs of squalamine, used as antibacterial agents” (VIRBAC, priority 2015, dated 2020).
≈ marks a conversion by molar mass, not a printed value. Read-outs that look alike come from different tables or passages of the source.

Columns and labels:
[1] = tested on: P. aeruginosa (PAO1); test: Potentiating of doxycycline activity by aminosteroidal derivative; format: cell-based, Pseudomonas aeruginosa; conditions: Doxycycline concentration used 2 μg/ml, 37° C., 24 h
Protocol: (§1) This method requires the use of a 96-well plate; 100 μl of a liquid culture medium are deposited in each well and then inoculated with the microbial suspension prepared above. The necessary volume to be inoculated is calculated for an OD of 0.01, which corresponds to approximately 5×10^6 bacteria in each well. In this plate, the first line corresponds to a negative control (200 μl of sterile culture medium in each well), the second line to a positive control (100 μl of sterile culture medium+100 μl of a bacterial suspension), the third line contains 192 μl of culture medium; 8 μl of aminosteroidal product to be tested are placed in each well. Subsequently, cascade dilution is carried out starting from this line. 8 μl of a doxycycline solution (1 mg dissolved in 20 ml) are subsequently added to each well of lines 3 to 8, in order to obtain a final concentration of antibiotic of 2 μg/ml. 92 μl of bacterial suspension are subsequently added to lines 3 to 8. The results (the determination of the MIC (2 μg/ml of doxycycline) in the presence of X μg/ml of aminosteroidal derivative) are read after incubating at 37° C. for 24 h in a humid atmosphere. After incubating at 37° C. for 24 h, 40 μl of nitrotetrazolium iodide are added to each well, making it possible to reveal the presence of living bacteria by coloring the medium pink.
(§2) The use of low amounts of aminosteroidal derivatives makes it possible to restore (to reduce) the necessary concentration of antibiotic to kill the strain under consideration.

[2] = tested on: S. aureus ATCC 25923; test: Minimum inhibitory concentration (MIC), microplate dilution; format: cell-based; conditions: Staphylococcus aureus, ATCC25923; Table I; Mueller-Hinton medium, 37° C., 24 h
Protocol: (§3) A positive control (1940 μl of culture medium+40 μl of DMSO+20 μl of the bacterial suspension) from a defrosted biological strain (the preservation of the biological strains is carried out at −80° C. in glycerol). The strains used are S. aureus ATCC 25923, E. coli ATCC 25922, P. aeruginosa ATCC 27853, C. albicans CIP 1180-79 and E. faecalis CIP 103015.
(§4) The microorganisms were handled under a hood in the laboratory of L2 type and, before any handling operation, a UV cycle was programmed and only sterile material was used. […] The chemical molecules to be tested were prepared in a DMSO/methanol (50/50) mixture at a concentration of 5 mg/ml.
(§5) After incubating for 24 h, the optical density was measured using a spectrophotometer at 600 nm by withdrawing 100 μl of the bacterial suspension diluted in 900 μl of the sterile culture medium. This test required the use of a 96-well plate and the necessary volume of the microbial suspension to be inoculated was calculated for an OD corresponding to a value equal to 0.01 in each well. In this plate, the first line corresponded to the negative control (195 μl of sterile culture medium in each well), the second line to the positive control (inoculated culture medium with the addition of 2% of DMSO), the third line was charged twice with bacterial suspension, 8 μl of product to be tested was placed in each well. Subsequently, cascade half dilution was carried out starting from this line.
(§6) The first column was used as inhibition control. A sterile filter was subsequently placed on the microplate, allowing the passage of gases but not of contaminants. The microplate was incubated at 37° C. in a humid atmosphere for 24 h.
(§7) NB: The medium used is the Mueller-Hinton (MH) medium for the bacteria. All the tests were carried out in duplicate.
(§8) After incubation, the filter was replaced with a transparent film and subsequently reading of OD was carried out in an IEMS plate spectrophotometer at 620 nm. A calculation of the minimum inhibitory concentration (MIC) was carried out.

[3] = tested on: P. aeruginosa ATCC 27853; test: as above; format: cell-based; conditions: Pseudomonas aeruginosa, ATCC27853; Table I; Mueller-Hinton medium, 37° C., 24 h
Protocol: as §3, §4, §5, §6, §7, §8

[4] = tested on: CHO-K1 cells; test: WST-1 cytotoxicity test; format: cell-based, Chinese hamster; conditions: Cricetulus griseus, WST-1 test, 24 hours, concentration reducing cell viability by 50%
Protocol: The WST-1 test was used to measure the cytotoxic activity of the products. This is a colorimetric test which makes it possible to measure the viability and the degree of cell proliferation.
The WST-1 test was carried out on Chinese hamster ovary cells. The CHO-K1 cells (ATCC, USA) are kept cultured in McCoy's 5 A medium additivated with 10% of fetal calf serum, with 2 mM of L-glutamine and with a penicillin/streptomycin mixture (100 U/ml: 10 μg/ml). Incubating is carried out at 37° C. under an atmosphere enriched in CO2 (5%) and subculturing is carried out every two days.
The cells are transferred into 96-well plates (25 000 cells/ml) in complete McCoy's 5 A medium and are maintained at 37° C. for 24 h under a humid atmosphere enriched in CO2 (5%). Increasing concentrations of test products are added to the wells in duplicate tests and 8 growth controls containing the cells in the medium alone are included in each series of tests. After 24 hours at 37° C. (5% of CO2), the culture medium is removed, the cells are rinsed in phosphate buffer (PBS) and 50 μl of PBS containing 10% of WST-1 reactant are added to each well. After incubating at 37° C. for 20 minutes, the results are read by spectrophotometry at 450 nm.
The results are expressed in the form of dose-response relationships, modeled by a nonlinear regression analysis using the TableCurve software.

[5] = tested on: C. albicans; test: Minimum inhibitory concentration (MIC), microplate dilution; format: cell-based, C. albicans CIP 1180-79; conditions: Candida albicans; Table I; 37° C., 24 h
Protocol: as §3, §4, §5, §6, §7, §8

[6] = tested on: P. aeruginosa (PAO1); test: Potentiating of chloramphenicol activity by aminosteroidal derivative; format: cell-based, Pseudomonas aeruginosa; conditions: Chloramphenicol concentration used 4 μg/ml
Protocol: as §1, with “8 μl of a doxycycline solution (1 mg dissolved in 20 ml) are subsequently added to each well of lines 3 to 8, in order to obtain a final concentration of antibiotic of 2 μg/ml.” left out, “The results (the determination of the MIC (2 μg/ml of doxycycline) in the presence of X μg/ml of aminosteroidal derivative) are read after incubating at 37° C. for 24 h in a humid atmosphere.” left out
as §2

[7] = tested on: S. faecalis; test: Minimum inhibitory concentration (MIC), microplate dilution; format: cell-based, E. faecalis CIP 103015; conditions: Enterococcus faecalis; Table I; Mueller-Hinton medium, 37° C., 24 h
Protocol: as §3, §4, §5, §6, §7, §8

[8] = tested on: S. aureus Methicillin-resistant; test: as above; format: cell-based; conditions: Staphylococcus aureus
Protocol: (§9) A positive control (1940 μl of culture medium+40 μl of DMSO+20 μl of the bacterial suspension) from a defrosted biological strain (the preservation of the biological strains is carried out at −80° C. in glycerol).
as §4, §5, §6, §7, §8

[9] = tested on: E. coli ATCC 25922; test: as above; format: cell-based; conditions: Escherichia coli, ATCC25922
Protocol: as §9, §4, §5, §6, §7, §8

[10] = tested on: P. aeruginosa (PAO1); test: MIC of conventional antibiotics alone; format: cell-based; conditions: Pseudomonas aeruginosa
[11] = Table I, Mueller-Hinton medium, 37° C., 24 h
[12] = Table II, comparison with state of the art compounds
[13] = Table I, Mueller-Hinton medium, 37° C., 24 h, read-out: MIC E. coli ATCC 25922
[14] = Table II, comparison with state of the art compounds, read-out: MIC E. coli

Row | MIC ([10]; antibiotic alone, Gram-negative strain of P. aeruginosa (PAO1), read-out: MIC) | Compound | Concentration of compound necessary in order to restore the activity of the antibiotic under consideration: Doxycycline [1] | MIC [2] | MIC [3] | IC50 [4] | MIC [5] | Concentration of compound necessary in order to restore the activity of the antibiotic under consideration: Chloramphenicol [6] | MIC [7] | MIC [8, 11] | MIC [8, 12] | MIC [9, 13] | MIC [9, 14] | MIC ([10]; PAO1)
1 |  | CC(C)CCC[C@@H](C)[C@H]1CCC2C3C(CC[C@@]21C)[C@@]1(C)CC[C@H](NCCCNCCCCNCCCN)C[C@@H]1C[C@H]3O (stereo partly drawn) [SA-1, 3β-Spermino-7α-hydroxy-5α-cholestane] | 4 µg/mL | 4 µg/mL (≈ 6.79 µM) | 32 µg/mL (≈ 54.3 µM) | 15 µM | 2 µg/mL (≈ 3.4 µM) | 16 µg/mL | 2 µg/mL (≈ 3.4 µM) | 2 µg/mL (≈ 3.4 µM) | 2 µg/mL (≈ 3.4 µM) | 16 µg/mL (≈ 27.2 µM) | 16 µg/mL (≈ 27.2 µM) | 
2 |  | CC(C)CCC[C@@H](C)[C@H]1CCC2C3C(CC[C@@]21C)[C@@]1(C)CC[C@H](NCCCNCCCCNCCCN)C[C@@H]1C[C@@H]3O (stereo partly drawn) [SA-2, 3β-Spermino-7β-hydroxy-5α-cholestane] | 4 µg/mL | 4 µg/mL (≈ 6.79 µM) | 32 µg/mL (≈ 54.3 µM) | 50 µM | 2 µg/mL (≈ 3.4 µM) | 16 µg/mL | 2 µg/mL (≈ 3.4 µM) | 2 µg/mL (≈ 3.4 µM) | 2 µg/mL (≈ 3.4 µM) | 32 µg/mL (≈ 54.3 µM) | 32 µg/mL (≈ 54.3 µM) | 
3 |  | CC(C)CCC[C@@H](C)[C@H]1CCC2C3C(CC[C@@]21C)[C@@]1(C)CC[C@H](NCCCNCCCN)C[C@@H]1C[C@@H]3O (stereo partly drawn) [SA-3, 3β-Norspermidino-7β-hydroxy-5α-cholestane] | 5 µg/mL | 5 µg/mL (≈ 9.65 µM) | 40 µg/mL (≈ 77.2 µM) | 32 µM | 2.5 µg/mL (≈ 4.83 µM) | 10 µg/mL | 2.5 µg/mL (≈ 4.83 µM) | 2.5 µg/mL (≈ 4.83 µM) | 2.5 µg/mL (≈ 4.83 µM) | 20 µg/mL (≈ 38.6 µM) | 20 µg/mL (≈ 38.6 µM) | 
4 |  | CC(C)CCC[C@@H](C)[C@H]1CCC2C3C(CC[C@@]21C)[C@@]1(C)CC[C@H](NCCCN)C[C@@H]1C[C@H]3O (stereo partly drawn) [SA-4, 3β-(1,3-Diaminopropane)-7β-hydroxy-5α-cholestane] |  | 4 µg/mL (≈ 8.68 µM) | 32 µg/mL (≈ 69.4 µM) | 9 µM | 2 µg/mL (≈ 4.34 µM) |  | 2 µg/mL (≈ 4.34 µM) | 2 µg/mL (≈ 4.34 µM) | 2 µg/mL (≈ 4.34 µM) | 32 µg/mL (≈ 69.4 µM) | 32 µg/mL (≈ 69.4 µM) | 
5 |  | CC(C)CCC[C@@H](C)[C@H]1CCC2C3C(CC[C@@]21C)[C@@]1(C)CC[C@H](NCCCCN)C[C@@H]1C[C@H]3O (stereo partly drawn) [SA-5, 3β-(1,4-Diaminobutane)-7β-hydroxy-5α-cholestane] |  | 4 µg/mL (≈ 8.42 µM) | 32 µg/mL (≈ 67.4 µM) | 15 µM | 4 µg/mL (≈ 8.42 µM) |  | 4 µg/mL (≈ 8.42 µM) | 4 µg/mL (≈ 8.42 µM) | 4 µg/mL (≈ 8.42 µM) | 32 µg/mL (≈ 67.4 µM) | 32 µg/mL (≈ 67.4 µM) | 
6 |  | CC(C)CCC[C@@H](C)[C@H]1CCC2C3C(CC[C@@]21C)[C@@]1(C)CC[C@H](NCCN(CCN)CCN)C[C@@H]1C[C@H]3O (stereo partly drawn) [SA-6, 3β-(Tris(2-aminoethyl)amine)-7β-hydroxy-5α-cholestane] | 2.5 µg/mL | 5 µg/mL (≈ 9.38 µM) | 40 µg/mL (≈ 75.1 µM) | 46 µM | 2.5 µg/mL (≈ 4.69 µM) | 20 µg/mL | 2.5 µg/mL (≈ 4.69 µM) | 5 µg/mL (≈ 9.38 µM) | 5 µg/mL (≈ 9.38 µM) | 20 µg/mL (≈ 37.5 µM) | 20 µg/mL (≈ 37.5 µM) | 
7 |  | CC(C)[C@@H](CC[C@@H](C)[C@H]1CC[C@H]2[C@@H]3[C@H](O)C[C@H]4C[C@@H](NCCCNCCCCN)CC[C@]4(C)[C@H]3CC[C@]12C)OS(=O)(=O)O [Squalamine, squalamine] | 1.75 µg/mL | 4 µg/mL (≈ 6.37 µM) | 20 µg/mL (≈ 31.8 µM) |  | 2 µg/mL (≈ 3.18 µM) | 1.75 µg/mL | 4 µg/mL (≈ 6.37 µM) | 4 µg/mL (≈ 6.37 µM) |  | 12 µg/mL (≈ 19.1 µM) |  | 
8 |  | O=C(N[C@H](CO)[C@H](O)c1ccc([N+](=O)[O-])cc1)C(Cl)Cl [chloramphenicol] |  |  |  |  |  |  |  |  |  |  |  | 1020 µg/mL
9 | 40 µg/mL | C[C@H]1c2cccc(O)c2C(=O)C2=C(O)[C@]3(O)C(=O)C(C(N)=O)=C(O)[C@@H](N(C)C)[C@@H]3[C@@H](O)[C@@H]21 [doxycycline] |  |  |  |  |  |  |  |  |  |  |  | 
